Results published in PubChem BioAssay (NCI).
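Interpolation was linear, between the two tested concentrations surrounding the appropriate level; five concentrations were tested over 48 hours in 96-well plates. Here, GI50 denotes the concentration required for 50% inhibition of growth. TGI: concentration producing complete growth inhibition.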

How the values were obtained:
Assay in all cases: NCI tumour cell line growth inhibition, 48 h
PC-3 prostate = system: PC-3 prostate
DLD-1 colon = system: DLD-1 colon
P388 leukemia = system: P388 leukemia
P388/ADR leukemia = system: P388/ADR leukemia
DMS 273 small cell lung = system: DMS 273 small cell lung
SNB-78 CNS = system: SNB-78 CNS
T-47D breast = system: T-47D breast
SN12K1 renal = system: SN12K1 renal
HOP-18 NSCLC = system: HOP-18 NSCLC
RXF-631 renal = system: RXF-631 renal
MDA-N = system: MDA-N

| Compound | GI50 (PC-3 prostate) | TGI (PC-3 prostate) | TGI (DLD-1 colon) | TGI (P388 leukemia) | TGI (P388/ADR leukemia) | TGI (DMS 273 small cell lung) | TGI (SNB-78 CNS) | GI50 (T-47D breast) | TGI (T-47D breast) | TGI (SN12K1 renal) | TGI (HOP-18 NSCLC) | TGI (RXF-631 renal) | TGI (MDA-N) |
| --- | --- | --- | --- | --- | --- | --- | --- | --- | --- | --- | --- | --- | --- |
| Nc1nc2c(ncn2C2OC(CO)C(O)C2O)c(=O)[nH]1 (stereo unspecified) | > 100 µM | > 100 µM | 142 µM | 44.5 µM | 80.3 µM | 159 µM | 300 µM | > 100 µM | > 100 µM | 259 µM | 300 µM | – | – |
| Cc1c(C(=O)/C=C/c2ccc3c(c2)OCO3)[n+](=O)c2ccccc2n1[O-] | – | – | > 100 µM | – | – | 52.6 µM | > 100 µM | – | – | – | > 100 µM | > 100 µM | – |
| CN(C)CC(=O)N1CCc2c([nH]c3ccccc23)C1c1cccnc1 (stereo unspecified) | 93 µM | > 100 µM | > 100 µM | – | – | 1.37 µM | > 100 µM | > 100 µM | > 100 µM | – | > 100 µM | > 100 µM | – |
| COc1ccc(C2NC(c3ccc(OC)cc3)C(C)C(=O)C2C)cc1 (stereo unspecified) | – | – | > 100 µM | – | – | > 100 µM | > 100 µM | – | – | – | > 100 µM | > 100 µM | – |
| CCOC(=O)c1cnc2c(ccc3ncccc32)c1OCC | – | – | > 100 µM | – | – | > 100 µM | > 100 µM | – | – | – | > 100 µM | > 100 µM | – |
| O=C1Cc2c([nH]c3ccccc23)-c2cc(Br)ccc2N1 | – | – | > 100 µM | – | – | > 100 µM | > 100 µM | – | – | – | > 100 µM | > 100 µM | – |
| CCCC/C=C1/CCC(CN(C)C)C1=O (stereo unspecified) | – | 27.2 µM | 2.16 µM | 0.366 µM | 0.396 µM | 5.76 µM | 5.21 µM | – | 2.64 µM | 1.9 µM | 5.56 µM | 3.27 µM | 5.2 µM |
| O=S1(=O)CS(=O)(=O)OCCCCCO1 | – | – | > 100 µM | – | – | > 100 µM | > 100 µM | – | – | – | > 100 µM | > 100 µM | – |
